Tests used:
[1] = target: T1, Recombinant, purified TCPTP (Homo sapiens, UniProt P17706); experiment: In vitro phosphatase assay with purified TCPTP protein (diFMUP substrate); type: biochemical; conditions: TAT peptides of D-amino acids, FIG. 4C
T1 construct: made in house
T1 sequence (P17706 1-387 isoform P17706-2): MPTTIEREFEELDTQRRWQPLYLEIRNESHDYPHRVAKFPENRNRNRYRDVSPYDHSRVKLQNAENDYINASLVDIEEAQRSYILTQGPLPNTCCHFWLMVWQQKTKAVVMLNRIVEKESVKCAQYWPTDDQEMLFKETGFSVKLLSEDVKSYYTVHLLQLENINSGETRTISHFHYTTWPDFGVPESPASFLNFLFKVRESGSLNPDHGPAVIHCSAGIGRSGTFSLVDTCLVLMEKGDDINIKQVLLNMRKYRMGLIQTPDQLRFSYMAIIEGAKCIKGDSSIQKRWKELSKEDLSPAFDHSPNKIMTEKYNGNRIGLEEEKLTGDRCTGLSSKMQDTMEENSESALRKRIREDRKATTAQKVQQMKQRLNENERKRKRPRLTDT
Method: (§1) FIG. 4. α1 integrin activates TCPTP and attenuates VEGFR2 signalling. (A) Serum-starved subconfluent HUVEC were treated for 1 h with α1 integrin cytoplasmic tail fusion peptide (α1TAT) or TAT-scramble control fusion peptide (ScrTAT) (both at 200 nM) followed by VEGF-induction (100 ng/ml, 15 min) where indicated. Cell lysates were resolved on SDS-PAGE and immunoblotted for phosphorylated VEGFR2 (or tubulin as a control). (B) HUVEC were treated as in (A) and VEGFR2 kinase activity (mean±SD, n=3) was measured from the cell lysates. **, p<0.01. (C) Recombinant, purified TCPTP was incubated with α1 or α2 cytoplasmic tail peptides (L-amino acids) or with α1 and scrambled TAT peptides (D-amino acids) and analyzed for phosphatase activity (mean±SD, n=3).
Phosphatase and kinase assays. Phosphatase assays were performed as described (8). Briefly, HUVEC were plated to collagen or gelatin coated plates and allowed to adhere for 1 h. TCPTP, SHP2 and control immunocomplexes were isolated from cell lysates, resuspended in the phosphatase assay buffer and assayed for phosphatase activity using 6,8-difluoro-4-methylumbelliferyl phosphate; Molecular Probes) as a substrate in the presence of a serine/threonine phosphatase inhibitor cocktail (Sigma). Thereafter, the antigens from the beads were used for immunoblotting. […]

VEGFR2 = VEGFR2 kinase activity from HUVEC lysates (Kinase-Glo Plus); type: cell-based, human; conditions: FIG. 4B
Method: as §1, with “(A)” for “FIG. 4. α1 integrin activates TCPTP and attenuates VEGFR2 signalling. (A)”
VEGFR2 kinase activity was studied using Kinase-Glo Plus kinase assay kit according to manufacturer's protocol (Promega) with 25 µM ATP. Briefly, HUVEC plated on gelatin were serum-starved overnight, treated with 400 nM α1TAT or ScrTAT or left untreated and stimulated with 100 ng/ml VEGF for 15 min, when indicated. The cells were lysed to ice-cold lysis buffer (1% NP-40, 20 mM Hepes pH 7.4, 150 mM NaCl, 10% glycerol, 2.5 mM EDTA, complete protease inhibitor (Roche) and phosphatase inhibitor coctails I and II (Sigma)). The lysates were incubated in anti-VEGFR2 or control IgG-coated wells with shaking for 2 h and washed 3 times with lysis buffer and 3 times with cold kinase assay buffer (20 mM Hepes pH 8, 0.1 mM Na3VO4, 10 mM MnCl2, 1 mM DTT). Kinase assay was performed for 10 min at +37° C.

HUVEC = experiment: Time-lapse chemokinesis assay; type: cell-based, human; conditions: HUVEC on gelatin, 4 hours time-lapse, peptide 200 nM, FIG. 5B
Method: FIG. 5. Controlled TCPTP activation inhibits VEGF-driven capillary formation, chemokinesis and chemotaxis. (A) HUVEC were cultured in fibrin gels and treated with or without VEGF and TAT peptides (200 nM). After 24 h the formation of capillary tubes was semiquantitatively scored. (B) HUVEC were plated on gelatin in the presence of the peptides (200 nM) or left untreated for 1 h. The cells were stimulated as indicated and migration of individual cells was tracked using time-lapse microscopy. Cumulative migration distance was plotted for randomly picked individual cells. (C) HUVEC were treated with 200 nM peptides and the transmigration assay was performed as in FIG. 3D. (D) HUVEC were transfected with siRNA against TCPTP or a control siRNA, and TCPTP expression was analysed with immunofluorescence. Equal exposures of TCPTP (green) and DAPI (blue) stainings are shown. 48 h post-transfection cells were subjected to transmigration assay as in […].
FIG. 9. TCPTP activation by α1-peptide inhibits VEGF induced chemokinesis. HUVEC were plated on gelatin in the presence of the peptides (200 nM) or left untreated for 1 h. The cells were stimulated as indicated and migration of individual cells was tracked using time-lapse microscopy. Representative images of individual cells overlayed with their migration patterns (different colours) at the indicated time points are shown.
Time-lapse chemokinesis assays. HUVEC were plated on gelatin-coated wells and allowed to attach for 1 h in the presence or absence of 200 nM α1TAT or ScrTAT and 20 ng/ml VEGF. Migration of individual cells was recorded at 5 min intervals for 4 h using 20× objective and digital video recording. The migration pathway of at least ten randomly picked cells was tracked using the Metamorph program. The cumulative migration distances were also plotted.

Sequence	activation of TCPTP phosphatase activity [1]	increase of VEGFR2 kinase activity upon VEGF-stimulation (VEGFR2; HUVEC treated with no peptide or with scrambled control TAT peptide)	inhibition of VEGF-induced chemokinesis (HUVEC)	kinase activity of VEGFR2 in VEGF-treated HUVEC (VEGFR2; VEGF 100 ng/ml 15 min)
YGRKKRRQRRRLKGWRFKLKPKFKEMK (SEQ ID NO 8) [ScrTAT, reference compound]	no effect	about 10 fold	no significant effect	
YGRKKRRQRRRWKLGFFKRPLKKKMEK (SEQ ID NO 3) [α1TAT]	very good activator		76±4%	completely abolished
